For seven compounds, melting point, Emax and EC50 results are on record in patent US20110269778A1, “NOVEL DIPHENYL PURINE DERIVATIVES USEFUL AS MODULATORS OF NICOTINIC ACETYLCHOLINE RECEPTORS” (NEUROSEARCH A/S, priority 2008, published 2011).

Series [1] deals with T1, wild-type nAChR α7 receptors (Homo sapiens, UniProt P36544).
T1 construct: expressed in transfected cells; host or cells: Xenopus laevis oocytes
The experiment in a line: Positive modulation of wild-type nAChR α7 receptors expressed in Xenopus laevis oocytes, two-electrode voltage clamp. To be noted: for Emax: maximal modulation of the control response to 100 μM acetylcholine, (test-control)/control×100%, from fitted concentration response curve, read-out: EC50 Imax; for pEC50: positive modulation of current induced by 100 μM acetylcholine, oocytes clamped at −60 mV, test compound 0.01-31.6 μM applied 30 s before and during acetylcholine. It counts as cell-based. Here is the method: In this example the positive modulation of wild-type nAChR α7 receptors by the compounds of the invention was determined using nAChR α7 receptors heterologously expressed in Xenopus laevis oocytes.
The electrical current through the nAChR α7 channel was measured using conventional two-electrode voltage clamp and nAChR α7 currents were activated by applying pulses of agonist-containing solution onto the nAChR α7 expressing oocyte.
In brief, the oocytes were placed in a recording chambers and continuously super-fused with an Oocyte Ringer (OR) solution containing 90 mM NaCl, 2.5 mM KCl, 2.5 mM CaCl2, 1 mM MgCl2 and 5 mM HEPES (pH adjusted to 7.4). The oocytes were clamped at −60 mV and currents were induced by applying 20 s pulses of 100 μM acetylcholine dissolved in OR. The intervals between the acetylcholine applications were 5 minutes, during which the oocytes were washed with OR. The first three applications were control applications to insure a constant response level of 100 μM acetylcholine. For the subsequent test applications, increasing concentrations (0.01-31.6 μM) of the test compound were applied 30 s before and during the acetylcholine (100 μM) application, which caused a robust increase in the acetylcholine-induced current amplitude.
The positive modulation in the presence of Compound 4 was calculated as (test-control)/control×100% and the concentration response curve for this positive modulation was fitted to the sigmoidal logistic equation: I=Imax/(1+(EC50/[compound])^n), where Imax represents the maximal modulation of the control response, EC50 is the concentration causing a half maximal response, and n is the slope coefficient.
A general note: In two-electrode clamp one electrode senses voltage and the other passes current.

pEC50: −log10 of the molar value.

T1 sequence (P36544 23-502): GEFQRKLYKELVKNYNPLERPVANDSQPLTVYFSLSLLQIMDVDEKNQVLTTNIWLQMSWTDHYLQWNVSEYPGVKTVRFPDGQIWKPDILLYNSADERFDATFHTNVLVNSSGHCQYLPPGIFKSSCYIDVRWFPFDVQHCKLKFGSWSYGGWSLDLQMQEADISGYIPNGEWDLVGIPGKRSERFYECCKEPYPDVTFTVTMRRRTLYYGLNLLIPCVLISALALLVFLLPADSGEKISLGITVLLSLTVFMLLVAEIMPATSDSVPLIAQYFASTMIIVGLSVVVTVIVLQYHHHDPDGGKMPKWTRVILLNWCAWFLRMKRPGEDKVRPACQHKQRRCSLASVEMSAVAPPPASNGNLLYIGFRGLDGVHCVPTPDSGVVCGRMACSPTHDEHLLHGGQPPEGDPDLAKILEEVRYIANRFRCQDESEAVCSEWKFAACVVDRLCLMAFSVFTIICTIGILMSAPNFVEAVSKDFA

For the compound `Oc1ccc(-n2cnc3c(-c4ccc(C(F)(F)F)cc4F)ncnc32)cc1` [Compound 2, 4-[6-(2-Fluoro-4-trifluoromethyl-phenyl)-purin-9-yl]-phenol], the melting point – broadly, the temperature, or range, at which the solid turns liquid – was in the range of 205.2 to 206.4 °C. For the same compound, in series [1], the Emax came out at 120% and the negative logarithm of the EC50 (pEC50) (as a rule, the negative decadic logarithm of the EC50, by convention in mol/L) was 5.24.
As for `COc1ccc(-n2cnc3c(-c4ccc(C(F)(F)F)cc4F)ncnc32)cc1` [Compound 1, 6-(2-Fluoro-4-trifluoromethyl-phenyl)-9-(4-methoxy-phenyl)-9H-purine], the melting point was 181.4 to 182.8 °C. Moreover, in series [1], the Emax came out at 45% and the negative-log EC50 (pEC50) was 5.92.
For `NS(=O)(=O)c1ccc(-n2cnc3c(-c4ccc(C(F)(F)F)cc4F)ncnc32)cc1` [Compound 3, 4-[6-(2-Fluoro-4-trifluoromethyl-phenyl)-purin-9-yl]-benzenesulfonamide] the same measures were 243.8 to 245 °C, 44% and 5.02.
Regarding `COc1ccc(-n2c(=O)[nH]c3c(-c4ccc(C(F)(F)F)cc4F)ncnc32)cc1` [Compound 4, 6-(2-Fluoro-4-trifluoromethyl-phenyl)-9-(4-methoxy-phenyl)-7,9-dihydro-purin-8-one], the melting point fell in the range of 295.9 to 297.2 °C. Also, in series [1], the Emax was found to be 1.6% and the pEC50 is 5.49.
`Oc1ccc(-n2nnc3c(-c4ccc(C(F)(F)F)cc4F)ncnc32)cc1` [Compound 7, 4-[7-(2-Fluoro-4-trifluoromethyl-phenyl)-[1,2,3]triazolo[4,5-d]pyrimidin-3-yl]-phenol] registered a melting point of 210.2 to 211.8 °C. Besides, in series [1], the Emax was found to be 28% and the pEC50 was 5.23.
`O=c1[nH]c2c(-c3ccc(C(F)(F)F)cc3F)ncnc2n1-c1ccc(O)cc1` [Compound 5, 6-(2-Fluoro-4-trifluoromethyl-phenyl)-9-(4-hydroxy-phenyl)-7,9-dihydro-purin-8-one]: the melting point lay in the range of 276.4 to 277.9 °C. In series [1], the Emax was 82% and the pEC50 was 4.48.
`COc1ccc(-n2nnc3c(-c4ccc(C(F)(F)F)cc4F)ncnc32)cc1` [Compound 6, 7-(2-Fluoro-4-trifluoromethyl-phenyl)-3-(4-methoxy-phenyl)-3H-[1,2,3]-triazolo[4,5-d]pyrimidine] returned a melting point of 175.4 to 176.8 °C. The Emax in series [1] amounted to 7.3%.
